Source: ChEMBL document CHEMBL1201862, “PubChem BioAssay data set” (2004)
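Method: 48-hour compound exposure of cells in 96-well plates, five concentrations, linear interpolation of endpoints. GI50: concentration for 50% inhibition of growth.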 Active and inactive are the calls of the source. Rule as the data show it: active = GI50 up to about 1.1 µM and inactive = higher.

How the values were obtained:
Assay in all cases: growth of human tumour cells (NCI), 48 h
DU-145 = test system: DU-145
EKVX = test system: EKVX
HCT-116 = test system: HCT-116
HCT-15 = test system: HCT-15
HT-29 = test system: HT-29
Hs-578T = test system: Hs-578T
IGROV-1 = test system: IGROV-1
K562 = test system: K562
NCI-H460 = test system: NCI-H460
NCI/ADR-RES = test system: NCI/ADR-RES
OVCAR-3 = test system: OVCAR-3
OVCAR-4 = test system: OVCAR-4
OVCAR-5 = test system: OVCAR-5
SF-268 = test system: SF-268
SK-MEL-2 = test system: SK-MEL-2
SN12C = test system: SN12C
SR = test system: SR
UACC-257 = test system: UACC-257
CCRF-CEM = test system: CCRF-CEM

Structure (SMILES) | GI50 (DU-145) | GI50 (EKVX) | GI50 (HCT-116) | GI50 (HCT-15) [µM] | GI50 (HT-29) | GI50 (Hs-578T) | GI50 (IGROV-1) | GI50 (K562) | GI50 (NCI-H460) | GI50 (NCI/ADR-RES) | GI50 (OVCAR-3) | GI50 (OVCAR-4) | GI50 (OVCAR-5) | GI50 (SF-268) | GI50 (SK-MEL-2) | GI50 (SN12C) | GI50 (SR) | GI50 (UACC-257) | GI50 (CCRF-CEM)
C/C(NC(=O)c1ccccc1)=C(/C(=O)c1ccccc1)[C@@H]1OC(C)(C)O[C@@H]1[C@H]1COC(C)(C)O1 | 44.7 µM (inactive) | 16.4 µM (inactive) | 19.5 µM (inactive) | 32.8 | 27 µM (inactive) | 27 µM (inactive) | 13.2 µM (inactive) | 20.9 µM (inactive) | 20.7 µM (inactive) | 27.7 µM (inactive) | 32.9 µM (inactive) | 27.6 µM (inactive) | 34.4 µM (inactive) | 35.6 µM (inactive) | 23.3 µM (inactive) | 25.2 µM (inactive) | 19.5 µM (inactive) | 30.8 µM (inactive) | –
O/N=C1/CCCCCC1NO (centres undefined) | > 100 µM (inactive) | > 100 µM (inactive) | > 100 µM (inactive) | > 100 | > 100 µM (inactive) | > 100 µM (inactive) | > 100 µM (inactive) | – | > 100 µM (inactive) | > 100 µM (inactive) | > 100 µM (inactive) | > 100 µM (inactive) | > 100 µM (inactive) | > 100 µM (inactive) | > 100 µM (inactive) | > 100 µM (inactive) | > 10 µM (inactive) | > 100 µM (inactive) | –
Cn1c(-c2cccc([N+](=O)[O-])c2)[n+](C)c2ccccc21 | > 100 µM (inactive) | > 100 µM (inactive) | > 100 µM (inactive) | > 100 | 40.9 µM (inactive) | > 100 µM (inactive) | 44.4 µM (inactive) | > 100 µM (inactive) | > 100 µM (inactive) | > 100 µM (inactive) | 30.8 µM (inactive) | > 100 µM (inactive) | > 100 µM (inactive) | 87.7 µM (inactive) | > 100 µM (inactive) | – | > 100 µM (inactive) | > 100 µM (inactive) | > 100 µM (inactive)
O=CCOCc1cc2c(cc1Br)OCO2 | 28.2 µM (inactive) | > 100 µM (inactive) | 21.6 µM (inactive) | 21.9 | 19 µM (inactive) | 17.1 µM (inactive) | 32.8 µM (inactive) | 44.6 µM (inactive) | > 100 µM (inactive) | 21 µM (inactive) | 17.3 µM (inactive) | 20.9 µM (inactive) | > 100 µM (inactive) | 18.6 µM (inactive) | – | 34.5 µM (inactive) | 24.7 µM (inactive) | > 100 µM (inactive) | 9.93 µM (inactive)
COc1ccc(C(=O)c2cc(OC)c(OC)c(OC)c2)cc1OC | 3.92 µM (inactive) | > 100 µM (inactive) | 4.94 µM (inactive) | 1.58 | 3.1 µM (inactive) | 2.7 µM (inactive) | 9.68 µM (inactive) | 2.28 µM (inactive) | 3.34 µM (inactive) | 3.84 µM (inactive) | 3.71 µM (inactive) | – | 14.6 µM (inactive) | 7.8 µM (inactive) | 3.08 µM (inactive) | 7.21 µM (inactive) | 3.28 µM (inactive) | 27.2 µM (inactive) | 4.37 µM (inactive)
CC(C)(Oc1ccccc1)C(=O)Sc1c(-c2ccccc2)c(=O)n(-c2ccccc2)c(=S)n1-c1ccccc1 | 95.9 µM (inactive) | > 100 µM (inactive) | 50.1 µM (inactive) | 56.6 | 50.9 µM (inactive) | 24.2 µM (inactive) | 22.6 µM (inactive) | 41.4 µM (inactive) | 27.3 µM (inactive) | 62.7 µM (inactive) | 32 µM (inactive) | 32.9 µM (inactive) | 75.3 µM (inactive) | 26.9 µM (inactive) | – | 51.3 µM (inactive) | 22.1 µM (inactive) | > 100 µM (inactive) | 25.9 µM (inactive)
CCOC(=O)C(NC(=O)c1ccccc1)(Nc1ccc(Cl)cc1C(F)(F)F)C(F)(F)F (centres undefined) | 12.9 µM (inactive) | 5.6 µM (inactive) | 3.78 µM (inactive) | – | 2.15 µM (inactive) | 39.3 µM (inactive) | 4.03 µM (inactive) | 2.47 µM (inactive) | > 20.5 µM (inactive) | 2.76 µM (inactive) | 3.57 µM (inactive) | 9.77 µM (inactive) | 13.5 µM (inactive) | > 37.4 µM (inactive) | 4.74 µM (inactive) | 4.45 µM (inactive) | 2.28 µM (inactive) | 9.64 µM (inactive) | 1.7 µM (inactive)
Nc1nc(Cl)cc(OCC2(CO)CCCCC2)n1 | > 100 µM (inactive) | 84.7 µM (inactive) | > 100 µM (inactive) | 24.5 | > 100 µM (inactive) | > 100 µM (inactive) | > 100 µM (inactive) | > 10 µM (inactive) | > 100 µM (inactive) | > 100 µM (inactive) | > 100 µM (inactive) | > 100 µM (inactive) | > 100 µM (inactive) | > 100 µM (inactive) | – | > 100 µM (inactive) | > 100 µM (inactive) | 78.7 µM (inactive) | > 100 µM (inactive)
COc1ccc2[nH]cc(C(=O)C(=O)NC34CC5CC(CC(C5)C3)C4)c2c1 | 39.4 µM (inactive) | > 50.1 µM (inactive) | 20.6 µM (inactive) | 9.16 | 2.08 µM (inactive) | 21.4 µM (inactive) | 58.3 µM (inactive) | 4.44 µM (inactive) | 7.31 µM (inactive) | 55.2 µM (inactive) | 8.97 µM (inactive) | 29.6 µM (inactive) | 35.2 µM (inactive) | > 61.1 µM (inactive) | 57.8 µM (inactive) | 18.9 µM (inactive) | – | 67.5 µM (inactive) | 9.48 µM (inactive)
CN(Cc1cnc2nc(N)nc(N)c2n1)c1ccc(C(=O)N[C@@H](CCS(=O)(=O)O)C(=O)O)cc1 | 0.562 µM (active) | > 73.3 µM (inactive) | 0.0352 µM (active) | 0.0514 | – | > 100 µM (inactive) | 0.431 µM (active) | > 100 µM (inactive) | 0.169 µM (active) | 1.18 µM (inactive) | > 49.5 µM (inactive) | > 100 µM (inactive) | – | 0.151 µM (active) | > 100 µM (inactive) | > 100 µM (inactive) | 0.0755 µM (active) | > 100 µM (inactive) | > 100 µM (inactive)
COc1ccc([C@@]23CCC(=O)C[C@@H]2N(C)CC3)cc1OC | > 100 µM (inactive) | > 100 µM (inactive) | – | > 100 | > 100 µM (inactive) | > 100 µM (inactive) | > 100 µM (inactive) | > 100 µM (inactive) | > 100 µM (inactive) | > 100 µM (inactive) | > 100 µM (inactive) | > 100 µM (inactive) | > 100 µM (inactive) | > 100 µM (inactive) | > 100 µM (inactive) | – | 66.2 µM (inactive) | > 100 µM (inactive) | > 100 µM (inactive)
N#Cc1nc(C2CCC(=O)O2)oc1N (centres undefined) | > 100 µM (inactive) | > 100 µM (inactive) | 83 µM (inactive) | > 100 | > 100 µM (inactive) | > 100 µM (inactive) | > 100 µM (inactive) | > 100 µM (inactive) | > 100 µM (inactive) | > 100 µM (inactive) | > 100 µM (inactive) | – | > 100 µM (inactive) | > 100 µM (inactive) | > 100 µM (inactive) | > 100 µM (inactive) | > 100 µM (inactive) | > 100 µM (inactive) | > 100 µM (inactive)
Cc1ccc(S(=O)(=O)N/N=C2\C=C[C@]3(CC2)C(=O)N(C)c2ccccc23)cc1 | > 100 µM (inactive) | > 100 µM (inactive) | > 100 µM (inactive) | > 100 | – | 98.9 µM (inactive) | > 100 µM (inactive) | > 100 µM (inactive) | > 100 µM (inactive) | > 100 µM (inactive) | > 100 µM (inactive) | > 100 µM (inactive) | > 100 µM (inactive) | > 100 µM (inactive) | > 100 µM (inactive) | > 100 µM (inactive) | > 100 µM (inactive) | > 100 µM (inactive) | > 100 µM (inactive)
COc1ccc(/N=N/C(=N/NC(=O)c2cc(Cl)ccc2C(=O)c2ccccc2)c2ccc(N(CCC#N)CCC#N)cc2C)cc1 | 19.5 µM (inactive) | 16.1 µM (inactive) | 13.1 µM (inactive) | 13.9 | 21.5 µM (inactive) | 29.9 µM (inactive) | 6.49 µM (inactive) | 12.9 µM (inactive) | 11.5 µM (inactive) | 16.7 µM (inactive) | 5.04 µM (inactive) | 21.4 µM (inactive) | 18.2 µM (inactive) | 12.1 µM (inactive) | 6.9 µM (inactive) | 14.6 µM (inactive) | – | 27.7 µM (inactive) | 4.54 µM (inactive)
CN1CCN(c2cc3[nH]c(-c4ccc(Cl)cc4)nc3cc2F)CC1 | 22.1 µM (inactive) | 22.2 µM (inactive) | 13.8 µM (inactive) | 5.42 | – | 16.1 µM (inactive) | 15.7 µM (inactive) | 3.78 µM (inactive) | 11.5 µM (inactive) | 21 µM (inactive) | 11.8 µM (inactive) | 22.8 µM (inactive) | 15.2 µM (inactive) | 16.2 µM (inactive) | 16.8 µM (inactive) | 26.7 µM (inactive) | 24.1 µM (inactive) | 10.8 µM (inactive) | 13.4 µM (inactive)
O=C1C(Cl)=C(N2CCSCC2)C(=O)c2c(O)ccc(O)c21 | 0.802 µM (active) | – | 0.307 µM (active) | – | 0.366 µM (active) | 0.501 µM (active) | 0.776 µM (active) | – | 0.494 µM (active) | 0.1 µM (active) | – | 0.552 µM (active) | – | 0.514 µM (active) | 0.204 µM (active) | – | 0.292 µM (active) | 1.51 µM (inactive) | –
